Species: Rattus norvegicus
Test: Open TG-GATES - Regimen: Daily Repeat
Type: toxicity, organism-based, Sprague-Dawley
Parameters: regimen Daily Repeat, gender Male, age 6 weeks
Conditions: in vivo, po, 300 mg/kg, route gavage, dose level Middle; for APTT / Bas / Eos / Fbg / Hb / Ht / Lym / MCHC / MCV / Mono / Neu / PT / Plat / RBC / Ret / WBC: tissue Blood; for KIDNEY_L / KIDNEY_R / KIDNEY_TOTAL: tissue Kidney; for LIVER: tissue Liver; for ALP / ALT / AST / BUN / CRE / Ca / Cl / DBIL / GLC / IP / K / LDH / Na / PL / RALB / TBIL / TG / TP / gamma-GTP: tissue Plasma

CN(C)C(=N)N=C(N)N [METFORMIN]
TERMINAL_BW (72 h, time 3 day): 223.9 g | APTT (72 h, time 3 day): 17.6 s | Bas (72 h, time 3 day): 0% | Eos (72 h, time 3 day): 1% | Fbg (72 h, time 3 day): 251.8 mg/dL | Hb (72 h, time 3 day): 13.2 g/dL | Ht (72 h, time 3 day): 39.3% | Lym (72 h, time 3 day): 78.2% | MCHC (72 h, time 3 day): 33.6% | MCV (72 h, time 3 day): 63.4 fL | Mono (72 h, time 3 day): 3.2% | Neu (72 h, time 3 day): 17.2% | PT (72 h, time 3 day): 12.7 s | Plat (72 h, time 3 day): 115.7 x10_4/uL | RBC (72 h, time 3 day): 621.4 x10_4/ul | Ret (72 h, time 3 day): 7.1% | WBC (72 h, time 3 day): 94 x10_2/uL | KIDNEY_L (72 h, time 3 day): 1 g | KIDNEY_R (72 h, time 3 day): 1 g | KIDNEY_TOTAL (72 h, time 3 day): 2 g | LIVER (72 h, time 3 day): 11.3 g | ALP (72 h, time 3 day): 1558.4 IU/L | ALT (72 h, time 3 day): 52.2 IU/L | AST (72 h, time 3 day): 78.4 IU/L | BUN (72 h, time 3 day): 15.8 mg/dL | CRE (72 h, time 3 day): 0.2 mg/dL | Ca (72 h, time 3 day): 11.1 mg/dL | Cl (72 h, time 3 day): 104.8 meq/L | DBIL (72 h, time 3 day): 0.016 mg/dL | GLC (72 h, time 3 day): 193.2 mg/dL | IP (72 h, time 3 day): 8.3 mg/dL | K (72 h, time 3 day): 3.9 meq/L | LDH (72 h, time 3 day): 62.2 IU/L | Na (72 h, time 3 day): 141.6 meq/L | PL (72 h, time 3 day): 140.8 mg/dL | RALB (72 h, time 3 day): 2.6 g/dL | TBIL (72 h, time 3 day): 0.038 mg/dL | TG (72 h, time 3 day): 68.2 mg/dL | TP (72 h, time 3 day): 5.6 g/dL | gamma-GTP (72 h, time 3 day): 1 IU/L | TERMINAL_BW ([…], time 7 day): 256.3 g | TERMINAL_BW ([…], time 14 day): 308.9 g | TERMINAL_BW ([…], time 28 day): 387.2 g | APTT ([…], time 7 day): 16 s | Bas ([…], time 7 day): 0% | Eos ([…], time 7 day): 1% | Fbg ([…], time 7 day): 279.8 mg/dL | Hb ([…], time 7 day): 13.8 g/dL | Ht ([…], time 7 day): 41% | Lym ([…], time 7 day): 77.6% | MCHC ([…], time 7 day): 33.7% | MCV ([…], time 7 day): 62.5 fL | Mono ([…], time 7 day): 3.6% | Neu ([…], time 7 day): 17.4% | PT ([…], time 7 day): 12 s | Plat ([…], time 7 day): 126.1 x10_4/uL | RBC ([…], time 7 day): 656.2 x10_4/ul | Ret ([…], time 7 day): 5.6% | WBC ([…], time 7 day): 77.5 x10_2/uL | APTT ([…], time 14 day): 17.2 s | Bas ([…], time 14 day): 0.2% | Eos ([…], time 14 day): 1.2% | Fbg ([…], time 14 day): 248.8 mg/dL | Hb ([…], time 14 day): 14.3 g/dL | Ht ([…], time 14 day): 41.6% | Lym ([…], time 14 day): 78.6% | MCHC ([…], time 14 day): 34.4% | MCV ([…], time 14 day): 60.4 fL | Mono ([…], time 14 day): 2.6% | Neu ([…], time 14 day): 17% | PT ([…], time 14 day): 12.2 s | Plat ([…], time 14 day): 116.5 x10_4/uL | RBC ([…], time 14 day): 690.4 x10_4/ul | Ret ([…], time 14 day): 4.6% | WBC ([…], time 14 day): 107 x10_2/uL | APTT ([…], time 28 day): 19.8 s | Bas ([…], time 28 day): 0.2% | Eos ([…], time 28 day): 1% | Fbg ([…], time 28 day): 261.8 mg/dL | Hb ([…], time 28 day): 15.3 g/dL | Ht ([…], time 28 day): 44.3% | Lym ([…], time 28 day): 79.4% | MCHC ([…], time 28 day): 34.5% | MCV ([…], time 28 day): 57 fL | Mono ([…], time 28 day): 2.6% | Neu ([…], time 28 day): 16.2% | PT ([…], time 28 day): 12.2 s | Plat ([…], time 28 day): 100.1 x10_4/uL | RBC ([…], time 28 day): 777.2 x10_4/ul | Ret ([…], time 28 day): 2.5% | WBC ([…], time 28 day): 112.9 x10_2/uL | KIDNEY_L ([…], time 7 day): 1 g | KIDNEY_R ([…], time 7 day): 1 g | KIDNEY_TOTAL ([…], time 7 day): 2.1 g | KIDNEY_L ([…], time 14 day): 1.2 g | KIDNEY_R ([…], time 14 day): 1.2 g | KIDNEY_TOTAL ([…], time 14 day): 2.4 g | KIDNEY_L ([…], time 28 day): 1.4 g | KIDNEY_R ([…], time 28 day): 1.4 g | KIDNEY_TOTAL ([…], time 28 day): 2.9 g | LIVER ([…], time 7 day): 12.7 g | LIVER ([…], time 14 day): 14 g | LIVER ([…], time 28 day): 16.4 g | ALP ([…], time 7 day): 1101.6 IU/L | ALT ([…], time 7 day): 61 IU/L | AST ([…], time 7 day): 83.2 IU/L | BUN ([…], time 7 day): 15.6 mg/dL | CRE ([…], time 7 day): 0.2 mg/dL | Ca ([…], time 7 day): 10.8 mg/dL | Cl ([…], time 7 day): 106.2 meq/L | DBIL ([…], time 7 day): 0.014 mg/dL | GLC ([…], time 7 day): 182.8 mg/dL | IP ([…], time 7 day): 8.2 mg/dL | K ([…], time 7 day): 4.6 meq/L | LDH ([…], time 7 day): 102.8 IU/L | Na ([…], time 7 day): 141.8 meq/L | PL ([…], time 7 day): 144.4 mg/dL | RALB ([…], time 7 day): 2.7 g/dL | TBIL ([…], time 7 day): 0.028 mg/dL | TG ([…], time 7 day): 119.6 mg/dL | TP ([…], time 7 day): 5.7 g/dL | gamma-GTP ([…], time 7 day): 0.8 IU/L | ALP ([…], time 14 day): 1291.2 IU/L | ALT ([…], time 14 day): 50.4 IU/L | AST ([…], time 14 day): 73 IU/L | BUN ([…], time 14 day): 16.4 mg/dL | CRE ([…], time 14 day): 0.2 mg/dL | Ca ([…], time 14 day): 10.9 mg/dL | Cl ([…], time 14 day): 104.8 meq/L | DBIL ([…], time 14 day): 0.016 mg/dL | GLC ([…], time 14 day): 190.4 mg/dL | IP ([…], time 14 day): 7.1 mg/dL | K ([…], time 14 day): 3.8 meq/L | LDH ([…], time 14 day): 72.2 IU/L | Na ([…], time 14 day): 142.4 meq/L | PL ([…], time 14 day): 157.6 mg/dL | RALB ([…], time 14 day): 2.7 g/dL | TBIL ([…], time 14 day): 0.032 mg/dL | TG ([…], time 14 day): 134.4 mg/dL | TP ([…], time 14 day): 5.9 g/dL | gamma-GTP ([…], time 14 day): 1 IU/L | ALP ([…], time 28 day): 1096.8 IU/L | ALT ([…], time 28 day): 47.2 IU/L | AST ([…], time 28 day): 68.8 IU/L | BUN ([…], time 28 day): 15.6 mg/dL | CRE ([…], time 28 day): 0.2 mg/dL | Ca ([…], time 28 day): 11.1 mg/dL | Cl ([…], time 28 day): 105.6 meq/L | DBIL ([…], time 28 day): 0.016 mg/dL | GLC ([…], time 28 day): 187.6 mg/dL | IP ([…], time 28 day): 6.8 mg/dL | K ([…], time 28 day): 3.8 meq/L | LDH ([…], time 28 day): 52 IU/L | Na ([…], time 28 day): 145.4 meq/L | PL ([…], time 28 day): 150.4 mg/dL | RALB ([…], time 28 day): 2.8 g/dL | TBIL ([…], time 28 day): 0.036 mg/dL | TG ([…], time 28 day): 158.2 mg/dL | TP ([…], time 28 day): 6.2 g/dL | gamma-GTP ([…], time 28 day): 1 IU/L

Reference: ChEMBL document CHEMBL3885861, “Open TG-GATES”
